# Experimental data from PMC3004370, “PI3Kα Inhibitors That Inhibit Metastasis” (Oncotarget, 2010).
# Tests used:
# mTOR = target: T1, mTOR (Homo sapiens, UniProt P42345); test: Panel of 273 kinases, mTOR; format: biochemical
# T1 construct: purchased Millipore (KinaseProfiler service)
# Description: The compounds were also tested for their capacity to inhibit two common mutant forms of PI3Kα – E545K and H1047R [2, 33]. None of the compounds discriminated between the wild-type (wt) and mutant forms of the enzyme (data not shown). Finally, we also tested one of the compounds (J124, chosen for reasons discussed later) against a panel of 273 kinases.
# p110α = target: T2, p110α (Homo sapiens, UniProt P42336); test: Biochemical PI3K inhibition assay, p110α
# T2 construct: His-tag; made in house; host or cells: Sf9 insect cells (baculovirus)
# Description: PIK3CD was generously provided by Novartis Pharmaceuticals. […] Sf9 cells were lysed in a buffer containing 50 mM sodium phosphate, pH 8.0, 400 mM NaCl, 5% glycerol, 1% Triton X-100, 10 mM 2-mercaptoethanol, 1 mM orthovanadate, 10 mM imidazole, and sonicated on ice for 1 minute. Proteins were purified by adding Ni-NTA Superflow beads (Qiagen, Valencia, CA, USA) to the lysate and subsequent rolling for 30 min at 4°C. Beads were washed twice with 50 mM phosphate buffer, pH 8.0, 0.5 M NaCl, 50 mM Imidazole, 2 mM DTT and eluted in the same buffer but with 200 mM imidazole. Purified PI3K's were mixed 1:1 with glycerol and stored at -20°C.
# J-series inhibitors were dissolved, serial diluted in DMSO and deposited into 96 well plates at a final DMSO concentration of 1%. We used a novel assay to determine their potency and selectivity. […] Reactions were timed after the addition of 10 μM ATP with 40 μCi/ml γ-32P-ATP (PerkinElmer, Waltham, MA, USA) and 2 mM MgCl2 (all final concentrations). The reactions were terminated after two hours by the addition of 2 N HCl and the lipids extracted with 1:1 MetOH/Chloroform. Radio-labeled phosphatidyl-inositol-3-phosphate in the extracted organic fraction was quantified after the addition of Microscint O (PerkinElmer) using a TopCount 96 well plate scintillation counter (PerkinElmer). IC50 concentrations and inhibition curves were calculated using Prism 5 (GraphPad Software, La Jolla, CA).
# PTK5 = target: T3, PTK5 (Homo sapiens, UniProt P42685); test: Millipore KinaseProfiler; format: biochemical; settings: read-out: % of control
# T3 construct: purchased Millipore (KinaseProfiler service)
# Excerpt: (§1) Supplement oncotarget-01-339-s001.doc, table 1: Supplementary Table 1. Millipore KinaseProfiler excerpt | column: % of control
# CDK5/p35 = target: T4, CDK5/p35 (Homo sapiens, UniProt Q00535); test: Millipore KinaseProfiler; format: biochemical; settings: read-out: % of control
# T4 construct: purchased Millipore (KinaseProfiler service)
# Excerpt: as §1
# Flt3(D835Y) = target: T5, Flt3(D835Y) (Homo sapiens, UniProt P36888, D835Y); test: Millipore KinaseProfiler; format: biochemical; settings: read-out: % of control
# T5 construct: purchased Millipore (KinaseProfiler service)
# Excerpt: as §1
# CLK2 = target: T6, CLK2 (Homo sapiens, UniProt P49760); test: Millipore KinaseProfiler; format: biochemical; settings: read-out: % of control
# T6 construct: purchased Millipore (KinaseProfiler service)
# Excerpt: as §1
# MELK = target: T7, MELK (Homo sapiens, UniProt Q14680); test: Millipore KinaseProfiler; format: biochemical; settings: read-out: % of control
# T7 construct: purchased Millipore (KinaseProfiler service)
# Excerpt: as §1
# Ret = target: T8, Ret (Homo sapiens, UniProt P07949); test: Millipore KinaseProfiler; format: biochemical; settings: read-out: % of control
# T8 construct: purchased Millipore (KinaseProfiler service)
# Excerpt: as §1
# Haspin = target: T9, Haspin (Homo sapiens, UniProt Q8TF76); test: Millipore KinaseProfiler; format: biochemical; settings: read-out: % of control
# T9 construct: purchased Millipore (KinaseProfiler service)
# Excerpt: as §1
# IRAK4 = target: T10, IRAK4 (Homo sapiens, UniProt Q9NWZ3); test: Millipore KinaseProfiler; format: biochemical; settings: read-out: % of control
# T10 construct: purchased Millipore (KinaseProfiler service)
# Excerpt: as §1
# IRAK1 = target: T11, IRAK1 (Homo sapiens, UniProt P51617); test: Millipore KinaseProfiler; format: biochemical; settings: read-out: % of control
# T11 construct: purchased Millipore (KinaseProfiler service)
# Excerpt: as §1
# Yes = target: T12, Yes (Homo sapiens, UniProt P07947); test: Millipore KinaseProfiler; format: biochemical; settings: read-out: % of control
# T12 construct: purchased Millipore (KinaseProfiler service)
# Excerpt: as §1
# ACK1 = target: T13, ACK1 (Homo sapiens, UniProt Q07912); test: Millipore KinaseProfiler; format: biochemical; settings: read-out: % of control
# T13 construct: purchased Millipore (KinaseProfiler service)
# Excerpt: as §1
# EphB1 = target: T14, EphB1 (Homo sapiens, UniProt P54762); test: Millipore KinaseProfiler; format: biochemical; settings: read-out: % of control
# T14 construct: purchased Millipore (KinaseProfiler service)
# Excerpt: as §1
# EGFR(T790M,L858R) = target: T15, EGFR(T790M,L858R) (Homo sapiens, UniProt P00533, L858R/T790M); test: Millipore KinaseProfiler; format: biochemical; settings: read-out: % of control
# T15 construct: purchased Millipore (KinaseProfiler service)
# Excerpt: as §1
# TrkA = target: T16, TrkA (Homo sapiens, UniProt P04629); test: Millipore KinaseProfiler; format: biochemical; settings: read-out: % of control
# T16 construct: purchased Millipore (KinaseProfiler service)
# Excerpt: as §1
# LIMK1 = target: T17, LIMK1 (Homo sapiens, UniProt P53667); test: Millipore KinaseProfiler; format: biochemical; settings: read-out: % of control
# T17 construct: purchased Millipore (KinaseProfiler service)
# Excerpt: as §1
# Src(1-530) = target: T18, Src(1-530) (Homo sapiens, UniProt P12931); test: Millipore KinaseProfiler; format: biochemical; settings: read-out: % of control
# T18 construct: Src(1-530); purchased Millipore (KinaseProfiler service)
# Excerpt: as §1
# cSRC = target: T19, cSRC (Homo sapiens, UniProt P12931); test: Millipore KinaseProfiler; format: biochemical; settings: read-out: % of control
# T19 construct: purchased Millipore (KinaseProfiler service)
# Excerpt: as §1
# NEK2 = target: T20, NEK2 (Homo sapiens, UniProt P51955); test: Millipore KinaseProfiler; format: biochemical; settings: read-out: % of control
# T20 construct: purchased Millipore (KinaseProfiler service)
# Excerpt: as §1
# Flt3 = target: T21, Flt3 (Homo sapiens, UniProt P36888); test: Millipore KinaseProfiler; format: biochemical; settings: read-out: % of control
# T21 construct: purchased Millipore (KinaseProfiler service)
# Excerpt: as §1
# Mer = target: T22, Mer (Homo sapiens, UniProt Q12866); test: Millipore KinaseProfiler; format: biochemical; settings: read-out: % of control
# T22 construct: purchased Millipore (KinaseProfiler service)
# Excerpt: as §1
# PKCθ = target: T23, PKCθ (Homo sapiens, UniProt Q04759); test: Millipore KinaseProfiler; format: biochemical; settings: read-out: % of control
# T23 construct: purchased Millipore (KinaseProfiler service)
# Excerpt: as §1
# TBK1 = target: T24, TBK1 (Homo sapiens, UniProt Q9UHD2); test: Millipore KinaseProfiler; format: biochemical; settings: read-out: % of control
# T24 construct: purchased Millipore (KinaseProfiler service)
# Excerpt: as §1
# T2 sequence (P42336 whole entry): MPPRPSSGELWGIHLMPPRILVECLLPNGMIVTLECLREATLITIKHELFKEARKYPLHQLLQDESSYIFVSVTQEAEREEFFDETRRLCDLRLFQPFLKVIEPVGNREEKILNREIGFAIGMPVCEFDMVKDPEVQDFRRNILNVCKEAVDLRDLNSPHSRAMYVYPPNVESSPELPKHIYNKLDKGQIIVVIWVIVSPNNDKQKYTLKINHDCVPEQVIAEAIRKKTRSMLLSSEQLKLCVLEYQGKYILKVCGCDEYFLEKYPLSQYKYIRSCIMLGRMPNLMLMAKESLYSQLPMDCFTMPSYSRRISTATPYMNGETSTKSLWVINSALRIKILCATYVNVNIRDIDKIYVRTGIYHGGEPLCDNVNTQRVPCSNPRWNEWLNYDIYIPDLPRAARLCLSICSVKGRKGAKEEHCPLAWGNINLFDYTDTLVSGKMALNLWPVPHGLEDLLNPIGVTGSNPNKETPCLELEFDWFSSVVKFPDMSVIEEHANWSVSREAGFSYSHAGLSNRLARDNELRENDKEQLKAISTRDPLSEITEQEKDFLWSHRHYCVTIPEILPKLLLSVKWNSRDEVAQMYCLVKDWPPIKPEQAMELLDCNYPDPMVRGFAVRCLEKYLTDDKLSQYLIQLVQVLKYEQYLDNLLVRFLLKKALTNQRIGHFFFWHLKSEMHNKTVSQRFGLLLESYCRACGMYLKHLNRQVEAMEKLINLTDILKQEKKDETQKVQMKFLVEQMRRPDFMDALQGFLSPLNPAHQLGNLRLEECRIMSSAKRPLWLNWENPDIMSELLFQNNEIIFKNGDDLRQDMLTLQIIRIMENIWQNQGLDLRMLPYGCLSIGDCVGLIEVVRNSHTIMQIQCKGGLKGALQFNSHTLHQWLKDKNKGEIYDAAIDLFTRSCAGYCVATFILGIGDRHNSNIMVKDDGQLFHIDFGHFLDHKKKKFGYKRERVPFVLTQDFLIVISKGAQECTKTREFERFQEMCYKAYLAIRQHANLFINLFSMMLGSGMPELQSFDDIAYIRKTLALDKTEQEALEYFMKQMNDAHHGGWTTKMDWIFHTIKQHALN
# T2 sequence (P27986 322-600 partner limits assumed): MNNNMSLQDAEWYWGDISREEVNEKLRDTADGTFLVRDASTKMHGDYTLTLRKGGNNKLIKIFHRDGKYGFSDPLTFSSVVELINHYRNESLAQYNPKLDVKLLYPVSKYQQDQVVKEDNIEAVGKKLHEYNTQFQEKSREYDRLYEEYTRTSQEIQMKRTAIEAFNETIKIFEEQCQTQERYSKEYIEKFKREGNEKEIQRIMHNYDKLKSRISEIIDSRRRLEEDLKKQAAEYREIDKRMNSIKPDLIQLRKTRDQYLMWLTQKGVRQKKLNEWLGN
# T11 sequence (P51617 whole entry): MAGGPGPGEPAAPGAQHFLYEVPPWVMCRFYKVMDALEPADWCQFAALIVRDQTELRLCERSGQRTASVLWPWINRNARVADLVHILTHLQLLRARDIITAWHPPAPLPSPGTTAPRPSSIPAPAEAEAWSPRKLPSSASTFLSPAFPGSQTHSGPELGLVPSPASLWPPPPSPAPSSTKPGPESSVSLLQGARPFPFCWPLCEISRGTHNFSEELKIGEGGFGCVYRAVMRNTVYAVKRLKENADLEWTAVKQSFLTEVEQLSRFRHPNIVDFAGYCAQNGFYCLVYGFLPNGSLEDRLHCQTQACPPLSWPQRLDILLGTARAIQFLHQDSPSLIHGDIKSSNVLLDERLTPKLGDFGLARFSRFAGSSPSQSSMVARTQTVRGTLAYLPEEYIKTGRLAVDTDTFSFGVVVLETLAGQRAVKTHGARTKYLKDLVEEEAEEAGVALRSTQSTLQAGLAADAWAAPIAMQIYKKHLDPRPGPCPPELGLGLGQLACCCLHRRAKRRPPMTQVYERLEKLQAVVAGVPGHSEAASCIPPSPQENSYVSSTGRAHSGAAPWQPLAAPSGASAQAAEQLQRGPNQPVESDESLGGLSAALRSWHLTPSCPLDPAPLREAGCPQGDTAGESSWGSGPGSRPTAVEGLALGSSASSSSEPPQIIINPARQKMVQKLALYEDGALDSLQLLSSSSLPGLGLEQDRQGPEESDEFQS
# T20 sequence (P51955 whole entry): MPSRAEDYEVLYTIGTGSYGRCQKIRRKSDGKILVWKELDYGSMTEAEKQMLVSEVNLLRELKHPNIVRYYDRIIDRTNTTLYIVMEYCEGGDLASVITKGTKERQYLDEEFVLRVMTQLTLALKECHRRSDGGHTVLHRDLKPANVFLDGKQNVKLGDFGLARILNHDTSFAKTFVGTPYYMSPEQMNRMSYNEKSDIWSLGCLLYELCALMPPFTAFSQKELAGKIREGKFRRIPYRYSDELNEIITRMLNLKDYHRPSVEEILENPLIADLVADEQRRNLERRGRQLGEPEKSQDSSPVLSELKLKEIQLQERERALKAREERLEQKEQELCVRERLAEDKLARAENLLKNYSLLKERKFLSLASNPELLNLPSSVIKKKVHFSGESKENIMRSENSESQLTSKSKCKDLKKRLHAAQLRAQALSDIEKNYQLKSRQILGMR
# T16 sequence (P04629 33-796): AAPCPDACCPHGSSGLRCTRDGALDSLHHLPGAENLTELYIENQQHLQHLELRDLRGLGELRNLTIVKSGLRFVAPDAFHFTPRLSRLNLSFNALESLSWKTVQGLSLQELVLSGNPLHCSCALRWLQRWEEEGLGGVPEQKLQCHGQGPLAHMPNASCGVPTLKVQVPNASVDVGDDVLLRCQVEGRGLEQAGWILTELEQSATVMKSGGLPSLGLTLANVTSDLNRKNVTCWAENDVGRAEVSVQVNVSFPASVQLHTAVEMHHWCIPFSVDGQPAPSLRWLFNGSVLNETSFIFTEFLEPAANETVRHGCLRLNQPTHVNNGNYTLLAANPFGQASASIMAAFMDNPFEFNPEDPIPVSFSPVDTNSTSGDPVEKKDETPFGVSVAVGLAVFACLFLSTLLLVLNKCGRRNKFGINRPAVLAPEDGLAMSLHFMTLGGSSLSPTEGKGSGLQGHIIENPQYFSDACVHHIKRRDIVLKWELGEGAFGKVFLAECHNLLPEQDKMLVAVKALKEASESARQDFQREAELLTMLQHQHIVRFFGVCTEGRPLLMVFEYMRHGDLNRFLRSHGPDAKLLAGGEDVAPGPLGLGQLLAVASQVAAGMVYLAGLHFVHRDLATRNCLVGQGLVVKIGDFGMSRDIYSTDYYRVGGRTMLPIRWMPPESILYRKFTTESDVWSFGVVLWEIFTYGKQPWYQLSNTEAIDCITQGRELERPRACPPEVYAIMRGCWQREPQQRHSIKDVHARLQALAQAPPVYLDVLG
# T23 sequence (Q04759 whole entry): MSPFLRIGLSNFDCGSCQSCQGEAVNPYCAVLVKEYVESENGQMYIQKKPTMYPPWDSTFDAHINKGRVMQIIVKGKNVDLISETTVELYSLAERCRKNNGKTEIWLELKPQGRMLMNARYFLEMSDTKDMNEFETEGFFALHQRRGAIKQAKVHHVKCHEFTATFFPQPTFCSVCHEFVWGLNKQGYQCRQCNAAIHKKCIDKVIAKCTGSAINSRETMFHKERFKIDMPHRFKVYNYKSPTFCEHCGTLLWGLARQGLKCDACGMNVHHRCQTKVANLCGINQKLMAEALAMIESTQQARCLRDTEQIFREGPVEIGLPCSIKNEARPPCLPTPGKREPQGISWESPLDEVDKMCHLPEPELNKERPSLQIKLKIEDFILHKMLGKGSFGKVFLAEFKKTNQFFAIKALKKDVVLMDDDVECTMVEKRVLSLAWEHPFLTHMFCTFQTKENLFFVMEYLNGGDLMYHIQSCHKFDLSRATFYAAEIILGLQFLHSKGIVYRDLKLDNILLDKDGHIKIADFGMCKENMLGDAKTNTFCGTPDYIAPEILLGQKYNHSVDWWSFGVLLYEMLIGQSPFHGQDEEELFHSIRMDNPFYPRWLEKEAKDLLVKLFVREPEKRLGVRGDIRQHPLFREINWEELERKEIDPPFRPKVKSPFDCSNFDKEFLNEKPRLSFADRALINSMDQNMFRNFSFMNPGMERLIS
# T6 sequence (P49760 whole entry): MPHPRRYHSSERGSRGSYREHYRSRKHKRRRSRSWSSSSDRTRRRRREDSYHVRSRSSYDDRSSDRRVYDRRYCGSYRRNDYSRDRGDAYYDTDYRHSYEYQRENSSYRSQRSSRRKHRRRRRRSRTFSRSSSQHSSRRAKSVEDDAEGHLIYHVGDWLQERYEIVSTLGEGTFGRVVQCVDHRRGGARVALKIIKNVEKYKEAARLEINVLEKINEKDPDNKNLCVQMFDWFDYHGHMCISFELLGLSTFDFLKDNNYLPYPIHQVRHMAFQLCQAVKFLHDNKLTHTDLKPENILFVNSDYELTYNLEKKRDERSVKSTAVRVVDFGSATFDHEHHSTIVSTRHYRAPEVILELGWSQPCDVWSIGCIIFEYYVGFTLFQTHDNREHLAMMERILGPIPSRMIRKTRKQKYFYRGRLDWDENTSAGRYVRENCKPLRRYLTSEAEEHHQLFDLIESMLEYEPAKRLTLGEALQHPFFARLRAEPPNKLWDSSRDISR
# T3 sequence (P42685 whole entry): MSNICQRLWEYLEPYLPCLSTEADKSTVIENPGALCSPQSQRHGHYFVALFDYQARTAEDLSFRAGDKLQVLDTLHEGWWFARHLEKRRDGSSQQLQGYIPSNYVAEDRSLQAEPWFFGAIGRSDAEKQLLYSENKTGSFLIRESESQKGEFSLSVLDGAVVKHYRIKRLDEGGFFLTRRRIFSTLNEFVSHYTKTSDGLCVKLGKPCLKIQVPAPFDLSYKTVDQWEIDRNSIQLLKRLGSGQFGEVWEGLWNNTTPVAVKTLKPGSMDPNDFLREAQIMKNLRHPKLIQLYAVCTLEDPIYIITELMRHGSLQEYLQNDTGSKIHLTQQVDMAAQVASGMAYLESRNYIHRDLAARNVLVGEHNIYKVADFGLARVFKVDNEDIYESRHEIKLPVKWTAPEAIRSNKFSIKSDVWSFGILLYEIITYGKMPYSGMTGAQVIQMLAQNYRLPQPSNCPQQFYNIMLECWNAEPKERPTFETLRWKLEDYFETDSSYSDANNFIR
smiles,measurement,setting,value
CCN(/N=C/c1cnc2ccc(Br)cn12)S(=O)(=O)c1cc([N+](=O)[O-])c(NC(=O)C(F)(F)F)cc1C [J124],inhibition of mTOR with an IC50 of 11 nM or lower,mTOR,not mTOR
same,IC50,"p110α; 10 μM ATP, two hours",11 nM
same,increase of inhibitory activity for PI3Kα,p110α; compared to J32,1.4 fold
same,remaining activity at 0.011 µM,PTK5,11%
same,remaining activity at 0.011 µM,CDK5/p35,37%
same,remaining activity at 0.011 µM,Flt3(D835Y),3%
same,remaining activity at 0.011 µM,CLK2,5%
same,remaining activity at 0.011 µM,MELK,23%
same,remaining activity at 0.011 µM,Ret,49%
same,remaining activity at 0.011 µM,Haspin,-1%
same,remaining activity at 0.011 µM,IRAK4,48%
same,remaining activity at 0.011 µM,IRAK1,42%
same,remaining activity at 0.011 µM,Yes,40%
same,remaining activity at 0.011 µM,ACK1,30%
same,remaining activity at 0.011 µM,EphB1,46%
same,remaining activity at 0.011 µM,"EGFR(T790M,L858R)",46%
same,remaining activity at 0.011 µM,TrkA,11%
same,remaining activity at 0.011 µM,LIMK1,36%
same,remaining activity at 0.011 µM,Src(1-530),48%
same,remaining activity at 0.011 µM,cSRC,48%
same,remaining activity at 0.011 µM,NEK2,42%
same,remaining activity at 0.011 µM,Flt3,10%
same,remaining activity at 0.011 µM,Mer,33%
same,remaining activity at 0.011 µM,PKCθ,35%
same,remaining activity at 0.011 µM,TBK1,46%
